Experimental data taken from patent US20260042771A1, “HETEROCYCLIC COMPOUND FOR INDUCING DEGRADATION OF G12V MUTANT KRAS PROTEIN” (Astellas Pharma Inc., priority 2022, published 2026).
pIC50: −log10 of the molar value. Blank lines part the entries; values can stand above or below the compound they belong to.

Key:
[1] = system: human KRAS G12V mutant-positive pancreatic cancer line PA-TU-8902; assay: Test Example 3: non-anchorage-dependent cell growth inhibition, spheroid 3D culture; assay type: cell-based; conditions: PaTu 8902, 144 h, PA-TU-8902 spheroid 3D culture, 6 days, CellTiter Glo 2.0
Method: Test Example 3: Evaluation of Non-Anchorage-Dependent Cell Growth Inhibitory Effect on Human KRAS G12V Mutant-Positive Pancreatic Cancer Line PA-TU-8902
The non-anchorage-dependent cell growth inhibitory effect of test compounds was evaluated by spheroid 3D cell culture.
PA-TU-8902 cells were seeded on low-cell-adhesive round bottom 384-well plates (PrimeSurface: from Sumitomo Bakelite) at 36 µL/well to give 5×10^2 cells per well. The cell culture was performed under the same conditions as in Test Example 1.
The next day, the test compounds (8 to 10 points having final concentrations in the range of 3 μM to 0.1 nM) and DMSO, which was the solvent for the test compounds, as a negative control were diluted 100-fold with a fresh medium and were added at 4 μL per well. After culturing in the presence of 5% CO2 at 37° C. for 6 days, CellTiter Glo 2.0 (from Promega) was added at 20 μL per well. After stirring with a plate mixer (from FINEPCR) at normal temperature for 1 hour, the luminescent signals were measured with ARVO X3 (from PerkinElmer).
With the signaling value in treatment with DMSO taken as 0% inhibition and with the signaling value in the medium alone without cells taken as 100% inhibition, the 50% inhibitory concentration values (IC50) were calculated by Sigmoid-Emax nonlinear regression analysis. The inhibition rate at 30 nM was calculated for Example No. 17.

[2] = target: T1, RAS G12V (Homo sapiens, UniProt P01116, G12V); assay: Test Example 1: RAS G12V degradation activity by Cell ELISA in PA-TU-8902; assay type: cell-based; conditions: for DC50: 50% degradation concentration of RAS G12V, PA-TU-8902 cells, 24 hours, Cell ELISA, corrected with β-actin; for Dmax: PaTu 8902, degradation rate at the most active concentration, DMSO = 0%, Example No. 7 at 3 μM = 100%, PA-TU-8902, 24 hours
T1 construct: host or cells: PA-TU-8902 human pancreatic cancer cells
Method: Test Example 1: Evaluation of RAS G12V Degradation Activity on Human KRAS G12V Mutant-Positive Pancreatic Cancer Line PA-TU-8902
The RAS G12V degradation activity of test compounds was evaluated by measuring the expression levels of RAS G12V by Cell ELISA.
PA-TU-8902 cells (DSMZ, ACC 179) were seeded at 36 μL per well on 384-well plates (from Greiner bio-one) to give 1.5×10^4 cells per well. As for the cell culture conditions, DMEM medium (from Sigma-Aldrich) containing 10% fetal bovine serum (from Cytiva) was used in the presence of 5% CO2 at 37° C.
The next day, the test compounds (10 points having final concentrations in the range of 3 μM to 0.1 nM), the compound of Example No. 7 having a final concentration of 3 μM as a positive control and dimethyl sulfoxide (DMSO), which was the solvent for the test compounds, as a negative control were diluted 100-fold with a fresh medium and were added at 4 μL per well. The cells were cultured for 24 hours.
The next day, the culture supernatant was removed, and 4% paraformaldehyde phosphate buffer (from FUJIFILM Wako Pure Chemical Corporation) was added at 20 μL per well. The plates were allowed to stand for 30 minutes at room temperature to thus immobilize the cells. Then, the supernatant was removed, and 0.1% Triton X-100 (from Amersham Biosciences)-containing Phosphate buffered saline (PBS) was added at 20 μL per well. After allowing to stand at room temperature for 10 minutes, the supernatant was removed. PBS was added at 25 μL per well, and the supernatant was removed to thus wash each well. The washing was performed twice in total. Subsequent washing operations were performed in the same manner. Next, the supernatant was removed, and 0.5% sodium dodecyl sulfate (SDS; from ThermoFisher Scientific)-containing PBS was added at 20 μL per well. After allowing to stand at room temperature for 10 minutes, the supernatant was removed by centrifugation of the plates. After washing with PBS, the supernatant was removed by centrifugation, and blocking solution (PVDF Blocking Reagent for Can Get Signal [from TOYOBO Co., Ltd.]) was added at 20 μL per well. After allowing to stand for 30 minutes at room temperature, the supernatant was removed by centrifugation and a solution obtained by diluting, as primary antibodies, anti-Ras (G12V Mutant Specific) antibody (Ras (G12V Mutant Specific) (D2H12) Rabbit mAb; from Cell Signaling Technology; 500-fold diluted) and […] (Anti-beta Actin antibody; from Abcam; 5,000-fold diluted) with Can Get Signal Solution 2 (from TOYOBO Co., Ltd.) was added at 15 μL per well. The plates were allowed to stand overnight at 4° C.
The next day, the supernatant was removed by centrifugation and washed with PBS. The supernatant was removed by centrifugation, a solution obtained by diluting, as secondary antibodies, anti-rabbit IgG antibody (IRDye 800CW Goat anti-Rabbit IgG; from LI-COR Biosciences) and anti-mouse IgG antibody (IRDye 680RD Donkey anti-Mouse IgG; from LI-COR Biosciences) 1,000-fold with Can Get Signal Solution 2 was added at 15 μL per well. After allowing to stand at room temperature for 1 hour, the supernatant was removed by centrifugation and washed with PBS. After removing the supernatant, the plates were dried with air at room temperature for 2 hours or more, and the 700 nm and 800 nm fluorescent signals were measured with Aerius (from LI-COR Biosciences).
The degradation rate of RAS G12V was calculated with the RAS G12V signaling value at the time of addition of DMSO taken as 0%, which was corrected with the signaling value of β-actin, and with the RAS G12V signaling value at the time of addition of the compound of Example No. 7 at a final concentration of 3 μM taken as 100%. […]

T1 sequence (P01116 1-188 isoform P01116-2 G12V): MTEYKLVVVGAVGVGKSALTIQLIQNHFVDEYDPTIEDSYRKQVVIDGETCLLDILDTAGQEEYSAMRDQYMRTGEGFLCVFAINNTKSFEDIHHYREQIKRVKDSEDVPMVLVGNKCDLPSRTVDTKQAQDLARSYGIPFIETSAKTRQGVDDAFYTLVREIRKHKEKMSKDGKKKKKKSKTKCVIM

Structure (SMILES): CO[C@@H](C)COc1nc(N2CC[C@H]2C(N)=O)c2cc(C3CC3)c(-c3c(C)c(F)cc4[nH]ncc34)c(OCc3ccc(C(=O)N4CCN(Cc5ccc6c(N7CCC(=O)NC7=O)nn(C)c6c5)C[C@@H]4C)cc3)c2n1 (atropisomer, axis not shown) [Example 5, (2S)-1-((7 M)-6-cyclopropyl-8-((4-[(2S)-4-{[3-(2,4-dioxo-1,3-diazinan-1-yl)-1-methyl-1H-indazol-6-yl]methyl)-2-methylpiperazine-1-carbonyl]phenyl)methoxy)-7-(6-fluoro-5-methyl-1H-indazol-4-yl)-2-[(2S)-2-methoxypropoxy]quinazolin-4-yl}azetidine-2-carboxyamide]
- pIC50 [1]: 7.82
- DC50 [2]: 5 nM
- Dmax [2]: 97%

Structure (SMILES): Cc1c(F)cc2[nH]ncc2c1-c1c(C2CC2)cc2c(N3CC[C@H]3C(N)=O)nc(OC[C@@H]3CCN(C)C3)nc2c1OCc1ccc(C(=O)N2CCN(Cc3ccc4c(N5CCC(=O)NC5=O)nn(C)c4c3)C[C@@H]2C)cc1 (atropisomer, axis not shown) [Example 7]
- pIC50 [1]: 7.26
- DC50 [2]: 38 nM
- Dmax [2]: 103%

Structure (SMILES): Cc1c(F)cc2[nH]ncc2c1-c1c(C2CC2)cc2c(N3CCOCC3)nc(OCC(C)(C)CN(C)C)nc2c1OCc1ccc(C(=O)N2CCN(Cc3ccc4c(c3)n(C)c(=O)n4N3CCC(=O)NC3=O)C[C@@H]2C)cc1 (atropisomer, axis not shown) [Example 9]
- pIC50 [1]: 7.33
- DC50 [2]: 6 nM
- Dmax [2]: 88%

Structure (SMILES): Cc1c(F)cc2[nH]ncc2c1-c1c(C2CC2)cc2c(N3CC(C#N)C3)nc(OCC(C)(C)CN(C)C)nc2c1OCc1ccc(C(=O)N2CCN(Cc3ccc4c(c3)n(C)c(=O)n4N3CCC(=O)NC3=O)C[C@@H]2C)cc1 (atropisomer, axis not shown) [Example 10]
- pIC50 [1]: 7.66
- DC50 [2]: 6 nM
- Dmax [2]: 88%

Structure (SMILES): Cc1c(F)cc2[nH]ncc2c1-c1c(C2CC2)cc2c(N3CC(C#N)C3)nc(OCC(C)(C)CN(C)C)nc2c1OCc1ccc(C(=O)N2CCN(Cc3ccc4c(N5CCC(=O)NC5=O)nn(C)c4c3)C[C@@H]2C)cc1 (atropisomer, axis not shown) [Example 11]
- pIC50 [1]: 7.74
- DC50 [2]: 11 nM
- Dmax [2]: 88%

Structure (SMILES): CO[C@@H](C)COc1nc(OC2CN(C(=O)NCCN(C)C)C2)c2cc(C3CC3)c(-c3c(C)c(F)cc4[nH]ncc34)c(OCc3ccc(C(=O)N4CCN(Cc5ccc6c(c5)n(C)c(=O)n6C5CCC(=O)NC5=O)C[C@@H]4C)cc3)c2n1 (stereo partly drawn) [Example 1]
- pIC50 [1]: 7.38
- DC50 [2]: 6 nM
- Dmax [2]: 77%

Structure (SMILES): CO[C@@H](C)COc1nc(N2CC(C#N)C2)c2cc(C3CC3)c(-c3c(C)c(F)cc4[nH]ncc34)c(OCc3ccc(C(=O)N4CCN(Cc5ccc6c(c5)n(C)c(=O)n6C5CCC(=O)NC5=O)C[C@@H]4C)cc3)c2n1 (stereo partly drawn) [Example 2, 1-{(7 M)-6-cyclopropyl-8-({4-[(2S)-4-([1-(2,6-dioxopiperidin-3-yl)-3-methyl-2-oxo-2,3-dihydro-1H-benzimidazol-5-yl]methyl)-2-methylpiperazine-1-carbonyl]phenyl)methoxy)-7-(6-fluoro-5-methyl-1H-indazol-4-yl)-2-[(2S)-2-methoxypropoxy]quinazolin-4-yl)azetidine-3-carbonitrile]
- pIC50 [1]: 7.68
- DC50 [2]: 4 nM
- Dmax [2]: 89%

More lines, now with the values ahead:

- pIC50 [1]: 7.48
- DC50 [2]: 13 nM
- Dmax [2]: 87%
Structure (SMILES): CO[C@@H](C)COc1nc(N2CC(C#N)C2)c2cc(C3CC3)c(-c3c(C)c(F)cc4[nH]ncc34)c(OCc3ccc(C(=O)N4CCN(Cc5ccc6c(N7CCC(=O)NC7=O)nn(C)c6c5)CC4)cc3)c2n1 (atropisomer, axis not shown) [Example 12]

- pIC50 [1]: 7.26
- DC50 [2]: 27 nM
- Dmax [2]: 104%
Structure (SMILES): CO[C@@H](C)COc1nc(N2CC(C#N)C2)c2cc(C3CC3)c(-c3c(C)c(F)cc4[nH]ncc34)c(OCc3ccc(C(=O)N4CCC5(CN(Cc6ccc7c(N8CCC(=O)NC8=O)nn(C)c7c6)C5)C4)cc3)c2n1 (atropisomer, axis not shown) [Example 13]

- pIC50 [1]: 7.92
- DC50 [2]: 4 nM
- Dmax [2]: 100%
Structure (SMILES): CO[C@@H](C)COc1nc(N2CC(C#N)C2)c2cc(C3CC3)c(-c3c(C)c(F)cc4[nH]ncc34)c(OCc3ccc(C(=O)N4CCN(Cc5ccc6c(N7CCC(=O)NC7=O)nn(C)c6c5)C[C@@H]4C)cc3)c2n1 (atropisomer, axis not shown) [Example 14]

- pIC50 [1]: 6.86
- DC50 [2]: 92 nM
- Dmax [2]: 85%
Structure (SMILES): CO[C@@H](C)COc1nc(N2CC(C#N)C2)c2cc(C3CC3)c(-c3c(C)c(F)cc4[nH]ncc34)c(OCc3ccc(C(=O)N4CC[C@H](CN(C)Cc5ccc6c(N7CCC(=O)NC7=O)nn(C)c6c5)C4)cc3)c2n1 (atropisomer, axis not shown) [Example 15]

- pIC50 [1]: 6.59
- DC50 [2]: 162 nM
- Dmax [2]: 95%
Structure (SMILES): CO[C@@H](C)COc1nc(N2CC(C#N)C2)c2cc(C3CC3)c(-c3c(C)c(F)cc4[nH]ncc34)c(OCc3ccc(C(=O)N4CC5(CN(Cc6ccc7c(N8CCC(=O)NC8=O)nn(C)c7c6)C5)C4)cc3)c2n1 (atropisomer, axis not shown) [Example 16]

- pIC50 [1]: 6.83
- DC50 [2]: 65 nM
- Dmax [2]: 78%
Structure (SMILES): CO[C@@H](C)COc1cc(OC2CN(C(=O)NCCN(C)C)C2)c2cc(C3CC3)c(-c3c(C)c(F)cc4[nH]ncc34)c(OCc3ccc(C(=O)N4CCN(Cc5ccc6c(N7CCC(=O)NC7=O)nn(C)c6c5)C[C@@H]4C)cc3)c2n1 (atropisomer, axis not shown) [Example 18]

- pIC50 [1]: 7.17
- DC50 [2]: 26 nM
- Dmax [2]: 78%
Structure (SMILES): CO[C@@H](C)COc1nc(N2CC[C@H]2C(N)=O)c2cc(C3CC3)c(-c3c(C)c(F)cc4[nH]ncc34)c(OCc3ccc(CN4CCN(Cc5ccc6c(N7CCC(=O)NC7=O)nn(C)c6c5)C[C@@H]4C)cc3)c2n1 (atropisomer, axis not shown) [Example 19]

- pIC50 [1]: 7.07
- DC50 [2]: 29 nM
- Dmax [2]: 85%
Structure (SMILES): CO[C@@H](C)COc1nc(N2CC[C@H]2C(N)=O)c2cc(C3CC3)c(-c3c(C)c(F)cc4[nH]ncc34)c(OCc3ccc(CN4CCN(Cc5ccc6c(N7CCC(=O)NC7=O)nn(C)c6c5)CC4=O)cc3)c2n1 (atropisomer, axis not shown) [Example 20, (2S)-1-{(7 M)-6-cyclopropyl-8-({4-[(4-{[3-(2,4-dioxo-1,3-diazinan-1-yl)-1-methyl-1H-indazol-6-yl]methyl)-2-oxopiperazin-1-yl)methyl]phenyl}methoxy)-7-(6-fluoro-5-methyl-1H-indazol-4-yl)-2-[(2S)-2-methoxypropoxy]quinazolin-4-yl)azetidine-2-carboxyamide]
